The subject of series [1] is influenza A/Puerto Rico/8/34 (H1N1) virus. The format is cell-based.
Series [2] is described as follows: Simultaneous thermal analysis. The class given is physicochemical.
A short description of the next series: in vitro. The following applies: dog.

In brackets after ≈: the same amount, converted by molar mass. Like-named read-outs stand apart in the source and are kept apart here.

As for `Ic1ccc(-c2nnn(C34CC5CC(CC(C5)C3)C4)n2)cc1` [Compound 3a, 2-(Adamantan-1-yl)-5-(4-iodophenyl)-2 H -tetrazole], in series [1] (ratio of CC50 to IC50), the “Selectivity index (SI)” value came out at 1. As to `Clc1ccc(-c2nnn(C34CC5CC(CC(C5)C3)C4)n2)cc1` [Compound 3d, 2-(Adamantan-1-yl)-5-(4-chlorophenyl)-2 H -tetrazole], the “Selectivity index (SI)” value in series [1] amounted to 2. Regarding `O=[N+]([O-])c1cc(-c2nnn(C34CC5CC(CC(C5)C3)C4)n2)ccc1O` [Compound 3g, 4-[(2-Adamantan-1-yl)-2 H -tetrazol-5-yl]-2-nitrophenol], the “Temperature from which complete decomposition occurs” value in series [2] (argon flow, heating rate 10°C/min) was at least 250 °C. For the same molecule, in series [2] (argon flow, heating rate 10°C/min, strong exothermic effect), the “Temperature of release of molecular nitrogen (loss of weight)” value came out at 156.2 °C. In addition, the “Loss of mass at complete decomposition” value in series [2] (starting with 250°C) is reported as 33.6%. As to `Nc1c(Br)cc([N+](=O)[O-])cc1-c1nnn(C23CC4CC(CC(C4)C2)C3)n1` [Compound 3h, 2-[2-(Adamantan-1-yl)-2 H -tetrazol-5-yl]-6-bromo-4-nitroaniline], the “Selectivity index (SI)” value in series [1] is 11.

As for `Nc1cc(-c2nnn(C34CC5CC(CC(C5)C3)C4)n2)ccc1O` [Compound 3i, 4-[2-(Adamantan-1-yl)-2 H -tetrazol-5-yl]-2-aminophenol], the “Selectivity index (SI)” value in series [1] came out at 2.

`CC(N)C12CC3CC(CC(C3)C1)C2` (stereo not drawn) [Rimantadine, reference compound]: the CC50 in the series “in vitro” amounted to 60 ± 4 µg/mL (≈ 335 µM). In addition, the “Selectivity index (SI)” value in series [1] is reported as 5.

The values above are taken from PMC8149581 (Chemistry of Heterocyclic Compounds, 2021).
